Source: PubChem BioAssay AID1963842 (Molecular Pharmacology Branch, DTP, NCI, 2024)

Test system: 677734-321-R-J1-PDC complex spheroid viability
Experiment: Anticancer human tumor 677734-321-R-J1-PDC patient-derived soft tissue sarcoma cell line growth inhibition [POLQ]
Details: for IC50: curve of first compound; for viability, T/C: stronger effect = lower value; active = viability on the fitted dose curve at most 10% of control; inactive = the rest
How it was run: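 Patient-derived tumour cells were co-cultured with HUVEC and mesenchymal stem cells as multicellular spheroids at 37 °C. They were treated with POLQ inhibitors (novobiocin, ART-558, RP6685) alone or combined with other agents. Top concentrations were at or near clinical Cmax (otherwise 10 microM; SN-38 at 1 microM), decreasing in half-log steps.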

[1] = second compound 0.0316 µM, first compound 0.0316 µM
[2] = second compound 0.0316 µM, first compound 0.1 µM
[3] = second compound 0.1 µM, first compound 0.0316 µM
[4] = second compound 0.1 µM, first compound 0.1 µM
[5] = second compound 0.316 µM, first compound 0.0316 µM
[6] = second compound 0.316 µM, first compound 0.1 µM
[7] = second compound 1 µM, first compound 0.0316 µM
[8] = second compound 1 µM, first compound 0.1 µM
[9] = second compound 3.16 µM, first compound 0.0316 µM
[10] = second compound 3.16 µM, first compound 0.1 µM
[11] = second compound 10 µM, first compound 0.0316 µM
[12] = second compound 10 µM, first compound 0.1 µM
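Note: spheroids exposed to compounds for one week.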
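Throughout, for viability, T/C: 100% = vehicle DMSO treated spheroids.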

Cn1ncnc1[C@H]1c2n[nH]c(=O)c3cc(F)cc(c23)N[C@@H]1c1ccc(F)cc1 + Cc1cccc(N(C)C(=O)C2C(O)CCN2c2nc(C)cc(C(F)(F)F)c2C#N)c1
> 100 nM: IC50 (second compound 0.0316 µM) | IC50 (second compound 0.1 µM) | IC50 (second compound 0.316 µM) | IC50 (second compound 1 µM) | IC50 (second compound 3.16 µM) | IC50 (second compound 10 µM)
inactive: viability, T/C (second compound 0.0316 µM, first compound 0.000316 µM) 110% | viability, T/C (second compound 0.0316 µM, first compound 0.001 µM) 102% | viability, T/C (second compound 0.0316 µM, first compound 0.00316 µM) 100% | viability, T/C (second compound 0.0316 µM, first compound 0.01 µM) 107% | viability, T/C [1] 104% | viability, T/C [2] 87.3% | viability, T/C (second compound 0.1 µM, first compound 0.000316 µM) 103% | viability, T/C (second compound 0.1 µM, first compound 0.001 µM) 99.7% | viability, T/C (second compound 0.1 µM, first compound 0.00316 µM) 102% | viability, T/C (second compound 0.1 µM, first compound 0.01 µM) 107% | viability, T/C [3] 101% | viability, T/C [4] 95.1% | viability, T/C (second compound 0.316 µM, first compound 0.000316 µM) 103% | viability, T/C (second compound 0.316 µM, first compound 0.001 µM) 97.8% | viability, T/C (second compound 0.316 µM, first compound 0.00316 µM) 102% | viability, T/C (second compound 0.316 µM, first compound 0.01 µM) 102% | viability, T/C [5] 102% | viability, T/C [6] 96.2% | viability, T/C (second compound 1 µM, first compound 0.000316 µM) 109% | viability, T/C (second compound 1 µM, first compound 0.001 µM) 96.4% | viability, T/C (second compound 1 µM, first compound 0.00316 µM) 96.9% | viability, T/C (second compound 1 µM, first compound 0.01 µM) 103% | viability, T/C [7] 96% | viability, T/C [8] 94.5% | viability, T/C (second compound 3.16 µM, first compound 0.000316 µM) 100% | viability, T/C (second compound 3.16 µM, first compound 0.001 µM) 98.7% | viability, T/C (second compound 3.16 µM, first compound 0.00316 µM) 101% | viability, T/C (second compound 3.16 µM, first compound 0.01 µM) 99% | viability, T/C [9] 102% | viability, T/C [10] 91.3% | viability, T/C (second compound 10 µM, first compound 0.000316 µM) 103% | viability, T/C (second compound 10 µM, first compound 0.001 µM) 92.1% | viability, T/C (second compound 10 µM, first compound 0.00316 µM) 101% | viability, T/C (second compound 10 µM, first compound 0.01 µM) 97.9% | viability, T/C [11] 91.3% | viability, T/C [12] 91.1%

O=c1[nH]cc(F)c(=O)[nH]1 + COC1C(OC(N)=O)C(O)C(Oc2ccc3c(O)c(NC(=O)c4ccc(O)c(CC=C(C)C)c4)c(=O)oc3c2C)OC1(C)C
2780 nM: IC50 (second compound 0.0316 µM)
3150 nM: IC50 (second compound 1 µM)
inactive: viability, T/C [1] 113% | viability, T/C [2] 98.6% | viability, T/C (second compound 0.0316 µM, first compound 0.316 µM) 106% | viability, T/C (second compound 0.0316 µM, first compound 1 µM) 94.8% | viability, T/C (second compound 0.0316 µM, first compound 3.16 µM) 44.4% | viability, T/C (second compound 0.0316 µM, first compound 10 µM) 40.5% | viability, T/C [3] 111% | viability, T/C [4] 103% | viability, T/C (second compound 0.1 µM, first compound 0.316 µM) 103% | viability, T/C (second compound 0.1 µM, first compound 1 µM) 91.9% | viability, T/C (second compound 0.1 µM, first compound 3.16 µM) 49.3% | viability, T/C (second compound 0.1 µM, first compound 10 µM) 43.2% | viability, T/C [5] 107% | viability, T/C [6] 102% | viability, T/C (second compound 0.316 µM, first compound 0.316 µM) 108% | viability, T/C (second compound 0.316 µM, first compound 1 µM) 98.5% | viability, T/C (second compound 0.316 µM, first compound 3.16 µM) 46.2% | viability, T/C (second compound 0.316 µM, first compound 10 µM) 37.1% | viability, T/C [7] 117% | viability, T/C [8] 101% | viability, T/C (second compound 1 µM, first compound 0.316 µM) 112% | viability, T/C (second compound 1 µM, first compound 1 µM) 91.6% | viability, T/C (second compound 1 µM, first compound 3.16 µM) 50.2% | viability, T/C (second compound 1 µM, first compound 10 µM) 41.1% | viability, T/C [9] 106% | viability, T/C [10] 101% | viability, T/C (second compound 3.16 µM, first compound 0.316 µM) 121% | viability, T/C (second compound 3.16 µM, first compound 1 µM) 83.7% | viability, T/C (second compound 3.16 µM, first compound 3.16 µM) 63.1% | viability, T/C (second compound 3.16 µM, first compound 10 µM) 42.8% | viability, T/C [11] 105% | viability, T/C [12] 107% | viability, T/C (second compound 10 µM, first compound 0.316 µM) 115% | viability, T/C (second compound 10 µM, first compound 1 µM) 89.7% | viability, T/C (second compound 10 µM, first compound 3.16 µM) 47.5% | viability, T/C (second compound 10 µM, first compound 10 µM) 43.3%
2870 nM: IC50 (second compound 10 µM)
6550 nM: IC50 (second compound 3.16 µM)
2910 nM: IC50 (second compound 0.316 µM)
3130 nM: IC50 (second compound 0.1 µM)
